From PubChem BioAssay (NCI)
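Dose response: 5 concentrations. Exposure: 48 h. Format: 96-well plates. Endpoint: linear interpolation; highest concentration if not reached. Abbreviation: GI50, concentration required for 50% inhibition of growth. TGI is the concentration that stops growth completely.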

How the values were obtained:
Experiment in all cases: NCI anticancer screen, dose series, 48 h
[1] = test system: T-47D breast
[2] = test system: BT-549 breast
[3] = test system: LOX IMVI melanoma
[4] = test system: SNB-19 CNS
[5] = test system: HL-60(TB) leukemia
[6] = test system: CCRF-CEM leukemia
[7] = test system: NCI-H226 lung
[8] = test system: TK-10 renal
[9] = test system: PC-3 prostate
[10] = test system: RXF 393 renal
[11] = test system: SR leukemia
[12] = test system: SF-295 CNS
[13] = test system: NCI/ADR-RES ovarian
[14] = test system: IGROV1 ovarian
[15] = test system: DU-145 prostate
[16] = test system: A498 renal
[17] = test system: KM12 colon
[18] = test system: HS 578T breast
[19] = test system: SF-539 CNS
[20] = test system: OVCAR-3 ovarian
[21] = test system: NCI-H460 lung
[22] = test system: ACHN renal
[23] = test system: MDA-MB-231 breast
[24] = test system: MOLT-4 leukemia
[25] = test system: SK-MEL-2 melanoma
[26] = test system: HCC-2998 colon
[27] = test system: EKVX NSCLC
[28] = test system: COLO 205 colon
[29] = test system: MDA-MB-435
[30] = test system: SNB-75 CNS
[31] = test system: SN12C renal
[32] = test system: HT29 colon
[33] = test system: OVCAR-8 ovarian
[34] = test system: K-562 leukemia
[35] = test system: A549 NSCLC
[36] = test system: MCF7 breast
[37] = test system: SK-MEL-28 melanoma
[38] = test system: SK-MEL-5 melanoma
[39] = test system: RPMI-8226 leukemia
[40] = test system: OVCAR-5 ovarian
[41] = test system: NCI-H522 lung
[42] = test system: UO-31 renal
[43] = test system: SK-OV-3 ovarian
[44] = test system: SW-620 colon
[45] = test system: HCT-116 colon
[46] = test system: UACC-62 melanoma
[47] = test system: SF-268 CNS
[48] = test system: NCI-H23 lung
[49] = test system: CAKI-1 renal
[50] = test system: HOP-92 NSCLC
[51] = test system: M14 melanoma
[52] = test system: U251 CNS
[53] = test system: UACC-257 melanoma
[54] = test system: OVCAR-4 ovarian
[55] = test system: HCT-15 colon
[56] = test system: HOP-62 NSCLC
[57] = test system: 786-0 renal
[58] = test system: MALME-3M melanoma

Q: `Clc1ccc(C2c3ccccc3-c3nccn32)c(Cl)c1` (stereo unspecified) was tested. Which GI50 [1] did it give?
A: Its GI50 is 5.13 µM.

Q: What about the TGI [1] of the same molecule?
A: The TGI was 32.8 µM.

Q: And the GI50 [2]?
A: The GI50 was 9.01 µM.

Q: And the TGI [2]?
A: The TGI was 21.7 µM.

Q: And the GI50 [3]?
A: Its GI50 is 11.2 µM.

Q: What about the TGI [3] of the same molecule?
A: Its TGI is 23.9 µM.

Q: And the GI50 [4]?
A: Its GI50 is 13.2 µM.

Q: And the TGI [4]?
A: Its TGI is 27.4 µM.

Q: What about the GI50 [5] of the same molecule?
A: The GI50 was 2.25 µM.

Q: And the TGI [5]?
A: The TGI was 18.4 µM.

Q: What about the GI50 [6] of the same molecule?
A: The GI50 was 2.77 µM.

Q: And the TGI [6]?
A: Its TGI is > 44.1 µM.

Q: And the GI50 [7]?
A: The GI50 was 6.92 µM.

Q: And the TGI [7]?
A: The TGI was 26 µM.

Q: And the GI50 [8]?
A: Its GI50 is 13.7 µM.

Q: And the TGI [8]?
A: Its TGI is 28.6 µM.

Q: What about the GI50 [9] of the same molecule?
A: Its GI50 is 11.6 µM.

Q: And the TGI [9]?
A: The TGI was 31.3 µM.

Q: What about the GI50 [10] of the same molecule?
A: The GI50 was 14.6 µM.

Q: What about the TGI [10] of the same molecule?
A: Its TGI is 30.6 µM.

Q: What about the GI50 [11] of the same molecule?
A: Its GI50 is 2.34 µM.

Q: What about the TGI [11] of the same molecule?
A: Its TGI is 30 µM.

Q: And the GI50 [12]?
A: The GI50 was 4.52 µM.

Q: And the TGI [12]?
A: The TGI was 18.3 µM.

Q: What about the GI50 [13] of the same molecule?
A: Its GI50 is 6.57 µM.

Q: What about the TGI [13] of the same molecule?
A: The TGI was 24 µM.

Q: What about the GI50 [14] of the same molecule?
A: The GI50 was 11.7 µM.

Q: And the TGI [14]?
A: The TGI was > 47.9 µM.

Q: And the GI50 [15]?
A: The GI50 was 13.6 µM.

Q: And the TGI [15]?
A: The TGI was 26.4 µM.

Q: What about the GI50 [16] of the same molecule?
A: The GI50 was 12.2 µM.

Q: What about the TGI [16] of the same molecule?
A: Its TGI is 24.6 µM.

Q: What about the GI50 [17] of the same molecule?
A: Its GI50 is 13.2 µM.

Q: What about the TGI [17] of the same molecule?
A: Its TGI is 26.6 µM.

Q: And the GI50 [18]?
A: Its GI50 is 13.6 µM.

Q: What about the TGI [18] of the same molecule?
A: The TGI was 35.5 µM.

Q: What about the GI50 [19] of the same molecule?
A: The GI50 was 15 µM.

Q: What about the TGI [19] of the same molecule?
A: Its TGI is 28.5 µM.

Q: What about the GI50 [20] of the same molecule?
A: Its GI50 is 11 µM.

Q: And the TGI [20]?
A: Its TGI is 22.9 µM.

Q: What about the GI50 [21] of the same molecule?
A: Its GI50 is 12.2 µM.

Q: And the TGI [21]?
A: Its TGI is 24.6 µM.

Q: And the GI50 [22]?
A: The GI50 was 12.3 µM.

Q: What about the TGI [22] of the same molecule?
A: Its TGI is 26.9 µM.

Q: What about the GI50 [23] of the same molecule?
A: The GI50 was 11.5 µM.

Q: What about the TGI [23] of the same molecule?
A: The TGI was 26 µM.

Q: And the GI50 [24]?
A: The GI50 was 2.8 µM.

Q: And the TGI [24]?
A: Its TGI is 20.5 µM.

Q: What about the GI50 [25] of the same molecule?
A: Its GI50 is 11.3 µM.

Q: What about the TGI [25] of the same molecule?
A: Its TGI is 26 µM.

Q: What about the GI50 [26] of the same molecule?
A: Its GI50 is 13.9 µM.

Q: What about the TGI [26] of the same molecule?
A: The TGI was 28.1 µM.

Q: What about the GI50 [27] of the same molecule?
A: Its GI50 is 5.28 µM.

Q: And the TGI [27]?
A: Its TGI is 19.3 µM.

Q: And the GI50 [28]?
A: Its GI50 is 13.5 µM.

Q: What about the TGI [28] of the same molecule?
A: Its TGI is 28 µM.

Q: And the GI50 [29]?
A: Its GI50 is 10.6 µM.

Q: And the TGI [29]?
A: Its TGI is 22.5 µM.

Q: And the GI50 [30]?
A: The GI50 was 11.2 µM.

Q: And the TGI [30]?
A: The TGI was 23.7 µM.

Q: And the GI50 [31]?
A: Its GI50 is 13.8 µM.

Q: What about the TGI [31] of the same molecule?
A: Its TGI is 30.6 µM.

Q: What about the GI50 [32] of the same molecule?
A: Its GI50 is 9.87 µM.

Q: And the TGI [32]?
A: The TGI was 24.6 µM.

Q: And the GI50 [33]?
A: The GI50 was 12.6 µM.

Q: And the TGI [33]?
A: The TGI was 32.5 µM.

Q: What about the GI50 [34] of the same molecule?
A: Its GI50 is 1.37 µM.

Q: What about the TGI [34] of the same molecule?
A: The TGI was > 40.5 µM.

Q: And the GI50 [35]?
A: Its GI50 is 13.4 µM.

Q: What about the TGI [35] of the same molecule?
A: The TGI was 36.7 µM.

Q: What about the GI50 [36] of the same molecule?
A: Its GI50 is 12.5 µM.

Q: What about the TGI [36] of the same molecule?
A: The TGI was 25.7 µM.

Q: And the GI50 [37]?
A: Its GI50 is 13.6 µM.

Q: What about the TGI [37] of the same molecule?
A: The TGI was 26.5 µM.

Q: And the GI50 [38]?
A: Its GI50 is 6.3 µM.

Q: And the TGI [38]?
A: Its TGI is 18.8 µM.

Q: And the GI50 [39]?
A: The GI50 was 0.941 µM.

Q: And the TGI [39]?
A: The TGI was 8.48 µM.

Q: And the GI50 [40]?
A: The GI50 was 14.8 µM.

Q: And the TGI [40]?
A: The TGI was 30.1 µM.

Q: What about the GI50 [41] of the same molecule?
A: The GI50 was 11.4 µM.

Q: What about the TGI [41] of the same molecule?
A: Its TGI is 31.7 µM.

Q: What about the GI50 [42] of the same molecule?
A: The GI50 was 7.37 µM.

Q: And the TGI [42]?
A: Its TGI is 23.3 µM.

Q: And the GI50 [43]?
A: Its GI50 is 14.7 µM.

Q: What about the TGI [43] of the same molecule?
A: Its TGI is 33.2 µM.

Q: And the GI50 [44]?
A: Its GI50 is 13.6 µM.

Q: What about the TGI [44] of the same molecule?
A: Its TGI is 26.5 µM.

Q: And the GI50 [45]?
A: The GI50 was 9.7 µM.

Q: What about the TGI [45] of the same molecule?
A: The TGI was 39.2 µM.

Q: And the GI50 [46]?
A: Its GI50 is 9.66 µM.

Q: And the TGI [46]?
A: The TGI was 23 µM.

Q: What about the GI50 [47] of the same molecule?
A: The GI50 was 14 µM.

Q: And the TGI [47]?
A: The TGI was 27.4 µM.

Q: What about the GI50 [48] of the same molecule?
A: Its GI50 is 6.56 µM.

Q: And the TGI [48]?
A: Its TGI is 35.5 µM.

Q: And the GI50 [49]?
A: Its GI50 is 1.98 µM.

Q: What about the TGI [49] of the same molecule?
A: The TGI was 19 µM.

Q: And the GI50 [50]?
A: The GI50 was 9.94 µM.

Q: What about the TGI [50] of the same molecule?
A: Its TGI is 25.7 µM.

Q: What about the GI50 [51] of the same molecule?
A: The GI50 was 21.2 µM.

Q: And the TGI [51]?
A: The TGI was 62.4 µM.

Q: What about the GI50 [52] of the same molecule?
A: Its GI50 is 13.4 µM.

Q: And the TGI [52]?
A: Its TGI is 26.2 µM.

Q: What about the GI50 [53] of the same molecule?
A: The GI50 was 12.5 µM.

Q: And the TGI [53]?
A: Its TGI is 28.9 µM.

Q: And the GI50 [54]?
A: Its GI50 is 3.6 µM.

Q: And the TGI [54]?
A: The TGI was 17.4 µM.

Q: What about the GI50 [55] of the same molecule?
A: Its GI50 is 11.5 µM.

Q: What about the TGI [55] of the same molecule?
A: The TGI was 24.4 µM.

Q: What about the GI50 [56] of the same molecule?
A: Its GI50 is 16.9 µM.

Q: And the TGI [56]?
A: The TGI was 44.2 µM.

Q: And the GI50 [57]?
A: Its GI50 is 19.5 µM.

Q: What about the TGI [57] of the same molecule?
A: Its TGI is > 55.2 µM.

Q: And the GI50 [58]?
A: The GI50 was 10.6 µM.

Q: What about the TGI [58] of the same molecule?
A: The TGI was 23.1 µM.
